Assay results: PMC7217877, “N-AS-triggered SPMs are direct regulators of microglia in a model of Alzheimer’s disease” (Nature Communications, 2020)
Changes are numbered by the printed parent chain. Where “and” joins values, the source holds several entries; their conditions need not be identical. Identical values can stand only once.

Experiments:
microsomal stability = assay type: in vitro ADME; settings: for half-life at 1 µM: pH 7.4
Protocol: An N-AS stock solution (10 mM dissolved in methanol) was diluted with methanol to make a concentration of 100 μM. A 10 μl aliquot of this solution was then diluted using 90 μl of 100 mM potassium phosphate buffer (pH 7.4). 10 μl of this N-AS solution was incubated at 37 °C with human or mouse liver microsomes (80 μl of 0.625 mg protein ml^−1 phosphate buffer) for 10 min before adding of 10 μl of an NADPH regenerating system to start the reaction. Reactions were stopped at 0, 15, 30, 60, and 90 min time-points by the addition of 200 μl cold acetonitrile (containing propranolol as internal standard at 20 ng ml^−1) and centrifuged at 17,968×g for 10 min. A 2 μl aliquot of the supernatant was injected into the LC-MS/MS system. The ratio of peak area of test compound/internal standard was used to determine the % remaining of N-AS over time.

COX2 S565A = target: T1, COX2 S565A (Homo sapiens, UniProt P35354, S565A); test: filter binding assay of [14C] N-AS to COX2; settings: 0.2 uM, replicates
T1 construct: His (N); made in house
T1 sequence (P35354 18-604 S565A): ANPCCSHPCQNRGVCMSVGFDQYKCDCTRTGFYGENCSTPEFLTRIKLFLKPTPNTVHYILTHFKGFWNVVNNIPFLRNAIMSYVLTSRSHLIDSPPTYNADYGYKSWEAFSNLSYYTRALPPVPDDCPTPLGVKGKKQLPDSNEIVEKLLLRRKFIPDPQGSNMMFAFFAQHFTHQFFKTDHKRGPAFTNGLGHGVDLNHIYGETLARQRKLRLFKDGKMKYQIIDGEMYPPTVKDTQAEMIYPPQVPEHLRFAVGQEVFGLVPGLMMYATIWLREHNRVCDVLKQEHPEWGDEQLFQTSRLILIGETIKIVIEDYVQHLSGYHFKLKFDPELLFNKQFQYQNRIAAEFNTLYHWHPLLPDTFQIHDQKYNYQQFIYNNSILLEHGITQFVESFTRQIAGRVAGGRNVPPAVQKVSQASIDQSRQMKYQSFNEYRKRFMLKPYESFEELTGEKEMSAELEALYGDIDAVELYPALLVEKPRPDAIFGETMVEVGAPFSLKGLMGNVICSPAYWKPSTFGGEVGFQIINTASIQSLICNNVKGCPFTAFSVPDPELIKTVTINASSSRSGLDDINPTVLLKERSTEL

COX2 N181A = target: T2, COX2 N181A (Homo sapiens, UniProt P35354, N181A); test: filter binding assay of [14C] N-AS to COX2; settings: 0.2 uM, replicates
T2 construct: His (N); made in house
T2 sequence (P35354 18-604 N181A): T1 sequence (P35354 18-604 S565A) with N164A, A548S

microglia = test: acetyl-CoA level in primary cells (assay kit); assay type: cell-based, C57BL/6 mice; settings: Ab 10mM, replicates
Protocol: To confirm the generation and roles of N-AS in neurons, cells from E18 C57BL/6 mice were prepared as previously described. Cortices were dissected and then dissociated followed by incubation in papain (Worthington) at 37 °C for 15 min. Neurons were plated on poly-L-lysine-coated coverslips with neuronal culture medium, serum-free Neurobasal medium (Gibco) containing 2% B27 supplements (Gibco), 1 mM Glutamax supplement (Gibco), and 100 U ml^−1 streptomycin/ 100 U ml^−1 penicillin (Gibco) at 37 °C in a humidified atmosphere of 5% CO2. Aβ 1–42 (10 μM, 24 h, Invitrogen, 03112) was exposed to neurons and the cells were analyzed for the generation and roles of N-AS. Primary astrocyte cultures were prepared from C57BL/6 mice as described previously. In brief, after removal of the meninges, postnatal day 7 (P7) mouse brain tissues were minced and incubated in a rocking water bath at 37 °C for 30 min in the presence of 0.25% trypsin-EDTA (Sigma-Aldrich). Enzyme-digested dissociated cells were triturated with astrocyte-specific medium (DMEM/F12 containing 10% FBS and 1% penicillin-streptomycin) and centrifuged at 155×g for 8 min. […] The human microglia treated with Aβ 1–42 and/or zileuton was incubated with N-AS (2.5 μM, 2 h, Sigma-Aldrich, 01912), and were analyzed for the generation and roles of N-AS. […]

Row | % of remaining after 0.5 h (microsomal stability; Mouse liver microsomes) | half-life at 1 µM (microsomal stability; Human liver microsomes) | half-life at 1 µM (microsomal stability; Mouse liver microsomes) | Compound | binding velocity (Vbinding) (COX2 S565A) | binding velocity (Vbinding) (COX2 N181A) | acetyl-CoA (Fig 3e) (microglia)
1 | 60.7% | 36 min | 54 min | CCCCCCCCCCCCC/C=C/[C@@H](O)[C@H](CO)NC(C)=O [N-AS, N-((2S,3R,E)-1,3-Dihydroxyoctadec-4-en-2-yl)acetamide] | 0.187 nM/min and 0.075 nM/min and 0.292 nM/min | 0.489 nM/min and 0.461 nM/min and 0.240 nM/min | –
2 | – | – | – | Ab: Aβ 1–42 (Invitrogen, 03112) used to induce an AD environment in cells | – | – | 0.5557 and 0.2327 and 0.5301 and 0.5514 and 0.536 and 0.6185
